# Reference: US12611446B2, “Cannabinoid product for improving musculoskeletal health” (Lonza Greenwood LLC, priority 2019, dated 2026)
# Marks after values point to notes of the source that are not given here.
# Experiments:
# [1] = system: Sodium Monoiodoacetate Induced Osteoarthritis(OA) in Rats; assay: Effect of UC-II undenatured Type II collagen and cannabigerol on sodium monoiodoacetate (MIA) induced osteoarthritis in rats: metabolic, inflammatory and oxidative stress markers; type: in vivo; conditions: MIA-induced OA female rats, 30 days
# Protocol: […] Treatment was started a week before injection with MIA and lasted 30 days. Biomarker testing was conducted prior to 24 days post MIA.
# The dosage levels were the same.
# [2] = system: Sodium Monoiodoacetate Induced Osteoarthritis(OA) in Rats; assay: Effect of UC-II undenatured Type II collagen and cannabidiol on sodium monoiodoacetate (MIA) induced osteoarthritis in rats: metabolic, inflammatory and oxidative stress markers; type: in vivo; conditions: MIA-induced OA male Wistar rats, 30 days; for COMP (cartilage oligomeric matrix protein) / CRP (c-reactive protein) / IL-1β (interleukin-1β) / IL-6 (interleukin-6) / PGE2 (prostaglandin E2) / TNF-α (tumor necrosis factor α): serum
# Protocol: OA was induced in male Wistar rats by intra-articular injection of sodium monoiodoacetate (MIA: 1 mg/kg). Treatment was started a week before injection with MIA and lasted 30 days. Biomarker testing was conducted prior to 24 days post MIA.
# [3] = CBGI = CBG 1.62 mg/kg (combination: + UC-II 4 mg/kg)
# [4] = CBGII = CBG 3.24 mg/kg (combination: + UC-II 4 mg/kg)
# [5] = CBD1 = CBD 1.62 mg/kg (combination: + UC-II 4 mg/kg)
# [6] = CBD2 = CBD 3.24 mg/kg (combination: + UC-II 4 mg/kg)
smiles,measurement,setting,value
"CCCCCc1cc(O)c(C/C=C(\C)CCC=C(C)C)c(O)c1 [CBG, cannabigerol]",CAT (catalase),[1]; [3],136.44 ± 4.10^bc U/mL
same,COMP (cartilage oligometrix matrix protein),[1]; [3],21.68 ± 2.13^b ng/mL
same,CRP (c-reactive protein),[1]; [3],7.04 ± 0.85^b mg/L
same,GSH-Px (glutathione peroxidase),[1]; [3],75.87 ± 4.87^bc U/mL
same,IL-1β (interleukin-1β),[1]; [3],35.08 ± 3.41^b pg/mL
same,IL-6 (interleukin-6),[1]; [3],33.14 ± 4.07^b pg/mL
same,IL-10 (interleukin-10),[1]; [3],47.42 ± 5.77^d pg/mL
same,MDA (malondialdehyde),[1]; [3],1.57 ± 0.07^b nmol/mL
same,Osteocalcin,[1]; [3],28.15 ± 1.34^ef μg/mL
same,PGE2 (prostaglandin E2),[1]; [3],483 ± 36.86^b pg/mL
same,SOD (superoxide dismutase),[1]; [3],49.13 ± 5.76^bc U/mL
same,TNF-α (tumor necrosis factor α),[1]; [3],56.95 ± 5.61^b pg/mL
same,CAT (catalase),[1]; [4],138.82 ± 2.71^b U/mL
same,COMP (cartilage oligometrix matrix protein),[1]; [4],20.42 ± 2.16^b ng/mL
same,CRP (c-reactive protein),[1]; [4],6.45 ± 0.82^bc mg/L
same,GSH-Px (glutathione peroxidase),[1]; [4],77.29 ± 5.83^b U/mL
same,IL-1β (interleukin-1β),[1]; [4],34.05 ± 2.80^b pg/mL
same,IL-6 (interleukin-6),[1]; [4],32.41 ± 3.81^b pg/mL
same,IL-10 (interleukin-10),[1]; [4],46.17 ± 4.91^d pg/mL
same,MDA (malondialdehyde),[1]; [4],1.60 ± 0.07^b nmol/mL
same,Osteocalcin,[1]; [4],30.82 ± 1.35^de μg/mL
same,PGE2 (prostaglandin E2),[1]; [4],473.71 ± 40.89^b pg/mL
same,SOD (superoxide dismutase),[1]; [4],51.13 ± 3.75^bc U/mL
same,TNF-α (tumor necrosis factor α),[1]; [4],54.32 ± 5.01^b pg/mL
"C=C(C)[C@@H]1CCC(C)=C[C@H]1c1c(O)cc(CCCCC)cc1O [CBD, cannabidiol]",ALB (Albumin),[2]; [5],3.59 ± 0.13^ab g/dL
same,ALP (Alkaline phosphatase),[2]; [5],137.14 ± 8.95^a U/L
same,ALT (Alanine aminotransferase),[2]; [5],69.14 ± 7.63 U/L
same,AST (Aspartate aminotransferase),[2]; [5],108.43 ± 13.4 U/L
same,BUN (Blood Urine Nitrogen),[2]; [5],23.57 ± 2.27 mg/dL
same,CAT (catalase),[2]; [5],125.79 ± 7.41^d U/mL
same,CR (Creatine),[2]; [5],0.45 ± 0.11 mg/dL
same,GLOB (Globulin),[2]; [5],3.16 ± 0.05^b g/dL
same,GLU (Glucose),[2]; [5],112.43 ± 11.52 mg/dL
same,MDA (malondialdehyde),[2]; [5],1.28 ± 0.08^b nmol/mL
same,OCN (osteocalcin),[2]; [5],28.20 ± 1.74^e μg/mL
same,SOD (superoxide dismutase),[2]; [5],50.00 ± 1.82^de U/mL
same,TBIL (Total Bilirubin),[2]; [5],0.20 ± 0.01 mg/dL
same,TP (Total Protein),[2]; [5],6.71 ± 0.17 g/dL
same,ALB (Albumin),[2]; [6],3.57 ± 0.14^ab g/dL
same,ALP (Alkaline phosphatase),[2]; [6],140.43 ± 8.40^a U/L
same,ALT (Alanine aminotransferase),[2]; [6],70.29 ± 5.56 U/L
same,AST (Aspartate aminotransferase),[2]; [6],110.29 ± 12.58 U/L
same,BUN (Blood Urine Nitrogen),[2]; [6],24.23 ± 1.27 mg/dL
same,CAT (catalase),[2]; [6],139.36 ± 3.44b^c U/mL
same,CR (Creatine),[2]; [6],0.45 ± 0.08 mg/dL
same,GLOB (Globulin),[2]; [6],3.27 ± 0.23^ab g/dL
same,GLU (Glucose),[2]; [6],109.86 ± 5.81 mg/dL
same,GSH-Px (glutathione peroxidase),[2]; [6],85.31 ± 3.85^bc U/mL
same,MDA (malondialdehyde),[2]; [6],1.24 ± 0.16^b nmol/mL
same,OCN (osteocalcin),[2]; [6],33.35 ± 3.18^d μg/mL
same,SOD (superoxide dismutase),[2]; [6],58.04 ± 2.76^c U/mL
same,TBIL (Total Bilirubin),[2]; [6],0.20 ± 0.01 mg/dL
same,TP (Total Protein),[2]; [6],6.87 ± 0.37 g/dL
same,COMP (cartilage oligomeric matrix protein),[2]; [5],21.22 ± 1.77^c ng/mL
same,CRP (c-reactive protein),[2]; [5],6.39 ± 1.06^c mg/L
same,IL-1β (interleukin-1β),[2]; [5],34.92 ± 2.23^bc pg/mL
same,IL-6 (interleukin-6),[2]; [5],30.83 ± 2.17^c pg/mL
same,PGE2 (prostaglandin E2),[2]; [5],504.41 ± 37.35^bc pg/mL
same,TNF-α (tumor necrosis factor α),[2]; [5],46.58 ± 0.87^c pg/mL
same,COMP (cartilage oligomeric matrix protein),[2]; [6],16.32 ± 1.91^d ng/mL
same,CRP (c-reactive protein),[2]; [6],3.95 ± 0.20^d mg/L
same,IL-1β (interleukin-1β),[2]; [6],31.94 ± 1.91^cd pg/mL
same,IL-6 (interleukin-6),[2]; [6],28.65 ± 2.17^c pg/mL
same,PGE2 (prostaglandin E2),[2]; [6],469.24 ± 11.42^cd pg/mL
same,TNF-α (tumor necrosis factor α),[2]; [6],41.97 ± 1.31^c pg/mL
